# According to paper PMC10465233, “Lys-urea-Aad, Lys-urea-Cmc and Lys-urea-Cms as potential pharmacophores for the design of PSMA-targeted radioligands to reduce off-target uptake in kidneys and salivary glands” (Theranostics, 2023):
# System: LNCaP tumor-bearing mice
# Assay: Ex vivo biodistribution in LNCaP tumor-bearing mice
# Parameters: species or system mouse
# Method: Imaging, biodistribution and radioligand therapy experiments were performed following previously published procedures using male NOD-scid IL2Rg^null (NSG) or NOD.Cg-Rag1^tm1MomIl2rg^tm1Wjl/SzJ (NRG) mice [10]-[12],[14]-[15]. The experiments were conducted according to the guidelines established by the Canadian Council on Animal Care and approved by Animal Ethics Committee of the University of British Columbia. The mice were briefly sedated by inhalation of 2% isoflurane in oxygen, and implanted subcutaneously with 1×10^7 LNCaP cells behind the left shoulder. The mice were imaged or used in biodistribution studies when the tumor grew to 5-8 mm in diameter over a period of 4-5 weeks.
# For biodistribution studies, the mice were injected with the radioligand (2-4 MBq) as described above. For blocking, the mice were co-injected with nonradioactive DCFPyL (0.5 mg). At predetermined time points, the mice were sedated by isoflurane inhalation and euthanized by CO2 inhalation. Blood was withdrawn by cardiac puncture, and organs/tissues of interest were collected, weighed and counted using an automatic gamma counter (Tables S4-S7).
structure (smiles),measurement,setting,value
COc1ccc(CCCC(=O)NCC(=O)N[C@@H](CCCCNC(=O)CN2CCN(CC(=O)[O-])CCN(CC(=O)[O-])CCN(CC(=O)[O-])CC2)C(=O)NC[C@H]2CC[C@H](C(=O)N[C@@H](Cc3c4ccccc4cc4ccccc34)C(=O)NCCCC[C@H](NC(=O)N[C@@H](CCCC(=O)O)C(=O)O)C(=O)O)CC2)cc1.[177Lu+3] [[^177Lu]Lu-HTK03170],Adrenal glands uptake,1 h post-injection,3.34 ± 0.45 %ID/g
same,Blood uptake,1 h post-injection,16.9 ± 1.97 %ID/g
same,Blood:Salivary gland uptake ratio,1 h post-injection,7.04 ± 0.86
same,Bone uptake,1 h post-injection,0.89 ± 0.27 %ID/g
same,Brain uptake,1 h post-injection,0.23 ± 0.04 %ID/g
same,Fat uptake,1 h post-injection,1.38 ± 0.45 %ID/g
same,Heart uptake,1 h post-injection,3.60 ± 0.52 %ID/g
same,Intestines uptake,1 h post-injection,1.19 ± 0.25 %ID/g
same,Kidneys uptake,1 h post-injection,13.2 ± 1.87 %ID/g
same,Lacrimal glands uptake,1 h post-injection,0.27 ± 0.08 %ID/g
same,Liver uptake,1 h post-injection,2.67 ± 0.37 %ID/g
same,Lungs uptake,1 h post-injection,8.06 ± 1.48 %ID/g
same,Muscle uptake,1 h post-injection,1.15 ± 0.19 %ID/g
same,Pancreas uptake,1 h post-injection,1.41 ± 0.31 %ID/g
same,Salivary glands uptake,1 h post-injection,2.43 ± 0.33 %ID/g
same,Spleen uptake,1 h post-injection,1.64 ± 0.83 %ID/g
same,Stomach uptake,1 h post-injection,0.59 ± 0.12 %ID/g
same,Testes uptake,1 h post-injection,2.17 ± 0.32 %ID/g
same,Thyroid uptake,1 h post-injection,2.90 ± 0.41 %ID/g
same,Tumor uptake,1 h post-injection,27.2 ± 7.55 %ID/g
same,Tumor:Blood uptake ratio,1 h post-injection,1.58 ± 0.26
same,Tumor:Kidney uptake ratio,1 h post-injection,2.07 ± 0.55
same,Tumor:Muscle uptake ratio,1 h post-injection,23.5 ± 4.66
same,Tumor:Salivary gland uptake ratio,1 h post-injection,11.3 ± 2.76
same,Adrenal glands uptake,4 h post-injection,1.78 ± 0.45 %ID/g
same,Blood uptake,4 h post-injection,8.34 ± 1.67 %ID/g
same,Blood:Salivary gland uptake ratio,4 h post-injection,6.48 ± 1.02
same,Bone uptake,4 h post-injection,0.45 ± 0.13 %ID/g
same,Brain uptake,4 h post-injection,0.13 ± 0.03 %ID/g
same,Fat uptake,4 h post-injection,0.60 ± 0.13 %ID/g
same,Heart uptake,4 h post-injection,1.91 ± 0.40 %ID/g
same,Intestines uptake,4 h post-injection,0.61 ± 0.17 %ID/g
same,Kidneys uptake,4 h post-injection,9.23 ± 2.18 %ID/g
same,Lacrimal glands uptake,4 h post-injection,0.15 ± 0.07 %ID/g
same,Liver uptake,4 h post-injection,1.89 ± 0.69 %ID/g
same,Lungs uptake,4 h post-injection,4.35 ± 0.82 %ID/g
same,Muscle uptake,4 h post-injection,0.58 ± 0.13 %ID/g
same,Pancreas uptake,4 h post-injection,0.74 ± 0.18 %ID/g
same,Salivary glands uptake,4 h post-injection,1.31 ± 0.30 %ID/g
same,Spleen uptake,4 h post-injection,0.96 ± 0.29 %ID/g
same,Stomach uptake,4 h post-injection,0.42 ± 0.15 %ID/g
same,Testes uptake,4 h post-injection,1.83 ± 0.58 %ID/g
same,Thyroid uptake,4 h post-injection,1.62 ± 0.42 %ID/g
same,Tumor uptake,4 h post-injection,47.6 ± 13.5 %ID/g
same,Tumor:Blood uptake ratio,4 h post-injection,5.81 ± 1.58
same,Tumor:Kidney uptake ratio,4 h post-injection,5.38 ± 1.91
same,Tumor:Muscle uptake ratio,4 h post-injection,83.1 ± 17.0
same,Tumor:Salivary gland uptake ratio,4 h post-injection,36.4 ± 5.35
same,Adrenal glands uptake,24 h post-injection,0.50 ± 0.16 %ID/g
same,Blood uptake,24 h post-injection,0.59 ± 0.13 %ID/g
same,Blood:Salivary gland uptake ratio,24 h post-injection,2.11 ± 0.47
same,Bone uptake,24 h post-injection,0.06 ± 0.04 %ID/g
same,Brain uptake,24 h post-injection,0.02 ± 0.01 %ID/g
same,Fat uptake,24 h post-injection,0.12 ± 0.04 %ID/g
same,Heart uptake,24 h post-injection,0.26 ± 0.04 %ID/g
same,Intestines uptake,24 h post-injection,0.18 ± 0.07 %ID/g
same,Kidneys uptake,24 h post-injection,5.80 ± 1.24 %ID/g
same,Lacrimal glands uptake,24 h post-injection,0.04 ± 0.03 %ID/g
same,Liver uptake,24 h post-injection,0.69 ± 0.27 %ID/g
same,Lungs uptake,24 h post-injection,0.72 ± 0.19 %ID/g
same,Muscle uptake,24 h post-injection,0.08 ± 0.02 %ID/g
same,Pancreas uptake,24 h post-injection,0.12 ± 0.03 %ID/g
same,Salivary glands uptake,24 h post-injection,0.28 ± 0.04 %ID/g
same,Spleen uptake,24 h post-injection,0.45 ± 0.10 %ID/g
same,Stomach uptake,24 h post-injection,0.25 ± 0.13 %ID/g
same,Testes uptake,24 h post-injection,0.64 ± 0.53 %ID/g
same,Thyroid uptake,24 h post-injection,0.37 ± 0.06 %ID/g
same,Tumor uptake,24 h post-injection,57.2 ± 15.3 %ID/g
same,Tumor:Blood uptake ratio,24 h post-injection,105 ± 57.4
same,Tumor:Kidney uptake ratio,24 h post-injection,10.5 ± 4.77
